Data published in paper PMC3747596 (PLoS ONE, 2013).
Read-outs that look alike come from different tables or passages of the source.

What was measured:
SERT = SERT (Homo sapiens, UniProt P31645); assay: Radioligand displacement, SERT; format: binding
mice = conditions: mice, cited from earlier work
α2B = target: T1, α2B (Homo sapiens, UniProt P18089); assay: Radioligand displacement, α2B; format: binding
T1 sequence (P18089 1-450): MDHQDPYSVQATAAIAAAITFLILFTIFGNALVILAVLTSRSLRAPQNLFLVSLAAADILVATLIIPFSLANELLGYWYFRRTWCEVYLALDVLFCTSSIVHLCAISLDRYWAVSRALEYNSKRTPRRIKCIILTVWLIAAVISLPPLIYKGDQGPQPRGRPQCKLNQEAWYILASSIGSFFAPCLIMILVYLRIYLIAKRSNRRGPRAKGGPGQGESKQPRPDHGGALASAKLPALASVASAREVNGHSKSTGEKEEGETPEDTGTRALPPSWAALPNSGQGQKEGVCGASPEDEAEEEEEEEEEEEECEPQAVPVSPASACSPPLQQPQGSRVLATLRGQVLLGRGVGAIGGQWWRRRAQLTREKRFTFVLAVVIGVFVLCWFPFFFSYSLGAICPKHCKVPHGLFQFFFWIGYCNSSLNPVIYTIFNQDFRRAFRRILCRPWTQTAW

α1B = target: T2, α1B (Homo sapiens, UniProt P35368); assay: Radioligand displacement, α1B; format: binding
T2 sequence (P35368 1-520): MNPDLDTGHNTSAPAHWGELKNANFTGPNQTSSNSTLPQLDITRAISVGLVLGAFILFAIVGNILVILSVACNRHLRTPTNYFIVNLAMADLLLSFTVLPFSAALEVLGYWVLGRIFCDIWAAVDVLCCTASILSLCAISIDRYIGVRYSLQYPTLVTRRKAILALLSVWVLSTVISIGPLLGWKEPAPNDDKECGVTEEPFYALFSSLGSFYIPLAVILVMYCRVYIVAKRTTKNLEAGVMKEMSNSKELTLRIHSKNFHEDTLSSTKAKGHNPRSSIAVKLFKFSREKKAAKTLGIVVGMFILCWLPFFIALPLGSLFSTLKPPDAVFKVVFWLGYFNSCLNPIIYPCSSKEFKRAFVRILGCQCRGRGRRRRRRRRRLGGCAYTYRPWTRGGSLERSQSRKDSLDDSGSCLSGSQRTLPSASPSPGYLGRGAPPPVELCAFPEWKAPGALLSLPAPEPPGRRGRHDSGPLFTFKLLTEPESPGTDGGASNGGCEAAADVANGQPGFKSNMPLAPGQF

[1] = tested on: human permeability glycoprotein (P-gp); conditions: cited from earlier work
5-HT1e = 5-HT1e (Homo sapiens, UniProt P28566); assay: Radioligand displacement, 5-HT1e; format: binding
Chain of 5-HT1e (P28566 whole entry): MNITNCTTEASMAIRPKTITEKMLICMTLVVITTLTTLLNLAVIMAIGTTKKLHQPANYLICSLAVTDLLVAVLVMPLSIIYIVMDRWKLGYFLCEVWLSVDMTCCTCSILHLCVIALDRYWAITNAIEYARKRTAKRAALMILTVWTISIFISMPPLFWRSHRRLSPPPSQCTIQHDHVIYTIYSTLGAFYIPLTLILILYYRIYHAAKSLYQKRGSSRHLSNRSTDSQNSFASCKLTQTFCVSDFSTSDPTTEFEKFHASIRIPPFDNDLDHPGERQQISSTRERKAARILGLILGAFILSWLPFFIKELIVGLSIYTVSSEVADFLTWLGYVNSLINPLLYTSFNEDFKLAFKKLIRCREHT

5-HT3 = target: T3, 5-HT3 (Homo sapiens, UniProt P46098); assay: Radioligand displacement, 5-HT3; format: binding
T3 sequence (P46098 24-478): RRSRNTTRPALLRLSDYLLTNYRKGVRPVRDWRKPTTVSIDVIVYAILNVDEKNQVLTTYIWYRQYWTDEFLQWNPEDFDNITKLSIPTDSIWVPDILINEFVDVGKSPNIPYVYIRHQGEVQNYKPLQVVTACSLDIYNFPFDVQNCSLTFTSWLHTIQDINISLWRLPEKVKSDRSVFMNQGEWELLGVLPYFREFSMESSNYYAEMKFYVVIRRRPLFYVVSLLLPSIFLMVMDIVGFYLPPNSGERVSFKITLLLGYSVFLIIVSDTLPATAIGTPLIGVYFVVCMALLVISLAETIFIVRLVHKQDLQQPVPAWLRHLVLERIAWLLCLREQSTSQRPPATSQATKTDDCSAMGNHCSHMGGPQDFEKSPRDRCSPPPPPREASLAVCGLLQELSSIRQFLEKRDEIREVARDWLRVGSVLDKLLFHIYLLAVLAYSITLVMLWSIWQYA

H3 = H3 (Cavia porcellus, UniProt Q9JI35); assay: Radioligand displacement, H3; format: binding, Guinea Pig
Chain of H3 (Q9JI35 whole entry): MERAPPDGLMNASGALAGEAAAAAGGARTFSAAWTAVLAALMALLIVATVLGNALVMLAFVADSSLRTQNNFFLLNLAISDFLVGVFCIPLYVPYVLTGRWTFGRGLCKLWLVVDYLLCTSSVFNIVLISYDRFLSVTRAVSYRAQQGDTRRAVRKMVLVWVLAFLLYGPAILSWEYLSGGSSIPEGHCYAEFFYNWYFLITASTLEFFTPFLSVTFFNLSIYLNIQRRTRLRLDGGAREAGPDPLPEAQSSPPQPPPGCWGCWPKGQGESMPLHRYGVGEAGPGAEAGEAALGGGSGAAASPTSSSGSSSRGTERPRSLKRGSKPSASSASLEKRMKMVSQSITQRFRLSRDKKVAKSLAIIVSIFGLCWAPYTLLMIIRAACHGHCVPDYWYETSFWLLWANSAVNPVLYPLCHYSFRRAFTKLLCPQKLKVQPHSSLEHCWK

[2] = target: NMDA receptors, phencyclidine (cation channel) site; assay: Radioligand displacement, NMDA; format: binding, Rat; conditions: for Ki: [3H] radioligand MK801, Rat, Brain
human NOP = target: T4, human NOP (Homo sapiens, UniProt P41146); assay: NOP binding against [3H]N/OFQ, HEK293T membranes
T4 construct: expressed in transfected cells; host or cells: HEK293T
T4 sequence (P41146 whole entry): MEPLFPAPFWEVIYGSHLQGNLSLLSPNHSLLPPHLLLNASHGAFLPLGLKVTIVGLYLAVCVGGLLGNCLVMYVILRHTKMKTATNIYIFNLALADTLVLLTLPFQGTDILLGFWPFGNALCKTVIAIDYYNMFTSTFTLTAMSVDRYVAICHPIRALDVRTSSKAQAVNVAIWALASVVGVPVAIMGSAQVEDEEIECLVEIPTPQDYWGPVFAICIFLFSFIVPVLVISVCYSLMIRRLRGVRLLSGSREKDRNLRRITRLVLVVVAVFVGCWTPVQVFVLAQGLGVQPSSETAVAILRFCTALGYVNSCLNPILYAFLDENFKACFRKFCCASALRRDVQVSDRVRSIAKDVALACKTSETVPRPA

M1-R = M1-R (Homo sapiens, UniProt P11229); set-up: method as in ref 9 = [9]; 9 Inan S (2010) Pharmacological and neuroanatomical analysis of GNTI-induced repetitive behavior in mice [Ph.D. thesis Thesis]. Philadelphia, PA: Temple University. Available: http://digital.library.t; conditions: at 1 µM; [3H]N-methylscopolamine; cited from earlier work
Chain of M1-R (P11229 whole entry): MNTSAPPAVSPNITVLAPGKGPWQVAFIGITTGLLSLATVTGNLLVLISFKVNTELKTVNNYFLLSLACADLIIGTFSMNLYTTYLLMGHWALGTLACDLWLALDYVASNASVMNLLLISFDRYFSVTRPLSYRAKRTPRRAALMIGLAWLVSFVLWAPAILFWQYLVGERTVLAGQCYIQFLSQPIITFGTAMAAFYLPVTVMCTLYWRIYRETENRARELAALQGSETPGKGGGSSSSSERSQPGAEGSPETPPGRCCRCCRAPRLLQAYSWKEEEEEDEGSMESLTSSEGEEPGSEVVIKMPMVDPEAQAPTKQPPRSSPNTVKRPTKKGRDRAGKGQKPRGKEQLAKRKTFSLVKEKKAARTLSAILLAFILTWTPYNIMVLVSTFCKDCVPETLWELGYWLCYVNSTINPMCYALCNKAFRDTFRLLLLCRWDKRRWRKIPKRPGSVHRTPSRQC

5-HT2c = target: T5, 5-HT2c (Homo sapiens, UniProt P28335); assay: Radioligand displacement, 5-HT2c; format: binding
T5 sequence (P28335 33-458): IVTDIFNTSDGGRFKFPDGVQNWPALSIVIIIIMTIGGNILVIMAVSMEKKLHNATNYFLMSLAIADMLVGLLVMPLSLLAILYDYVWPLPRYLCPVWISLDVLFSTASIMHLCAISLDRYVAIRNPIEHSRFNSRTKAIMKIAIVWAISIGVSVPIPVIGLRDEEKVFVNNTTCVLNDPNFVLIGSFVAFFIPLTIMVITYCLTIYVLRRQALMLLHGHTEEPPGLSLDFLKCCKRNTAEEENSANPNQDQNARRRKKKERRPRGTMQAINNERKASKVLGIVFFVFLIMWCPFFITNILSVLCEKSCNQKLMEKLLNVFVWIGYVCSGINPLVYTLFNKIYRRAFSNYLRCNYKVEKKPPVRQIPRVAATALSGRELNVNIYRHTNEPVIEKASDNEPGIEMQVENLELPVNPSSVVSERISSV

[3] = target: noradrenaline transporter (NET) (Homo sapiens, UniProt P23975); assay: Inhibition of noradrenaline transporter, fluorescent dye uptake; format: cell-based; conditions: 95% CI = 0.5 to 2.6 µM; read-out: IC50, inhibition of noradrenaline transport
Chain of noradrenaline transporter (NET) (P23975 whole entry): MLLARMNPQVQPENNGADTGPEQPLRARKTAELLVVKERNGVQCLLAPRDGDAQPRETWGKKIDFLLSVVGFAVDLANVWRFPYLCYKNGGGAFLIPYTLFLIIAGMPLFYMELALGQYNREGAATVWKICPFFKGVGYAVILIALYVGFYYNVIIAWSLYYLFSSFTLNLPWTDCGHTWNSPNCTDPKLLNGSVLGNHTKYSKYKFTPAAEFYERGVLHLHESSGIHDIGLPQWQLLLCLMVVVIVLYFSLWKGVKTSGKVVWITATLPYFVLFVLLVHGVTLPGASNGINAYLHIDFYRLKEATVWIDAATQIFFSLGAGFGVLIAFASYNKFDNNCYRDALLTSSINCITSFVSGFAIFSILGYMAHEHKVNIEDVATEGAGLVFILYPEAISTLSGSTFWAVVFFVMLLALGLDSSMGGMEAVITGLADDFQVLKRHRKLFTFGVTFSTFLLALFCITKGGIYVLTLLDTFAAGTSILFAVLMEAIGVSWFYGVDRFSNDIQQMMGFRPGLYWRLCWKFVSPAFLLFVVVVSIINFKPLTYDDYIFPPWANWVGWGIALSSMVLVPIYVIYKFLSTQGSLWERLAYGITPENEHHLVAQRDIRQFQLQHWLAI

[4] = tested on: glucocorticoid receptor NR3C1; set-up: method as in PMID 10875228; conditions: at 10 µM; cited from earlier work
[5] = [3H] radioligand Rauwolscine, Human, Cloned
[6] = Ki, [3H] radioligand Prazosin, Human, Cloned

Chain of SERT (P31645 whole entry): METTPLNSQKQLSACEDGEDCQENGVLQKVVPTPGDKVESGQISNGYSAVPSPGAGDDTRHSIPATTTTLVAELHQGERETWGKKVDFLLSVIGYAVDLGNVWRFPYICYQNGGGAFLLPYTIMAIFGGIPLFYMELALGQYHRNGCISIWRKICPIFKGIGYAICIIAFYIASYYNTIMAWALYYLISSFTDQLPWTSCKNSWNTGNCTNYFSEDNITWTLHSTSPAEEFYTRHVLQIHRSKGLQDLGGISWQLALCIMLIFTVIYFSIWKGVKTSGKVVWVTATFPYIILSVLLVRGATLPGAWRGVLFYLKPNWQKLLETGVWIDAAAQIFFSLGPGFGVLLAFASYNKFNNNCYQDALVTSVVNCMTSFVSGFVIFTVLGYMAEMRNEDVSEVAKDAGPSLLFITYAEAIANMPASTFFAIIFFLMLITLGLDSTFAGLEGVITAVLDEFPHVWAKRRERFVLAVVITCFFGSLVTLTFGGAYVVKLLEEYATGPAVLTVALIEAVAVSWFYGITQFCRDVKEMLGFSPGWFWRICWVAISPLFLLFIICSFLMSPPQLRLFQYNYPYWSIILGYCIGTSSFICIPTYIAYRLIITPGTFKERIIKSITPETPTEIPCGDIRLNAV

Compound	Ki (SERT)	Ki (α2B; [5])	Ki (α1B; [6])	substrate of human P-gp [1]	Ki (5-HT1e)	Ki (5-HT3)	Ki (H3)	Ki [2]	Ki (human NOP)	Ki (5-HT2c)	toxic signs (mice; 100 mg/kg)	further results
N=C(N)Nc1ccc2[nH]c3c(c2c1)C[C@@]1(O)[C@H]2Cc4ccc(O)c5c4[C@@]1(CCN2CC1CC1)[C@H]3O5 [GNTI, 5′-guanidinonaltrindole]	≥ 10 µM	≥ 10 µM	8.9 µM	not substrates	≥ 10 µM	≥ 10 µM	≥ 10 µM	≥ 10 µM	2.5 µM	≥ 10 µM	–	time to ataxia, convulsions and death (mice; 30 mg/kg i.p.): ≤ 18 min; toxic signs (mice; 30 mg/kg i.p.): ataxia, convulsions and death; Ki (α1B; Ki, binding curve File S1 (GNTI page), Alpha1B Receptor, [125I]HEAT (0.05 nM)): 8.91 µM; displacement from M1-R (M1-R): 52%
CC(C)[C@@H](CN1CC[C@@](C)(c2cccc(O)c2)[C@@H](C)C1)NC(=O)[C@H]1Cc2ccc(O)cc2CN1 [JDTic]	–	≥ 10 µM	–	–	–	–	–	≥ 10 µM	–	–	no convulsions or deaths	Ki (SERT; [3H] radioligand Citalopram, Human, Cloned, read-out: Ki): ≥ 10 µM; Ki (α1B; [3H] radioligand Prazosin, Human, Cloned, read-out: Ki): 4.81 µM; Ki (α1B; binding curve File S1 (JDTic page), Alpha1B Receptor, [125I]HEAT (0.12 nM), read-out: Ki): 4.81 µM; Ki (α1B; α1B, radioligand displacement (Table 1), read-out: K i): 4.8 µM; Ki (5-HT1e; [3H] radioligand 5HT, Human, Cloned, read-out: Ki): ≥ 10 µM; Ki (5-HT3; [3H] radioligand LY278584, Human, Cloned, read-out: Ki): ≥ 10 µM; Ki (H3; [3H] radioligand α-methylhistamine, Guinea Pig, Cloned, read-out: Ki): ≥ 10 µM; Ki (human NOP; NOP, displacing [3H]N/OFQ (Table 1), read-out: K i): 0.012 µM; IC50 [3]: 1.1 µM; Ki (5-HT2c; [3H] radioligand Mesulergine, Human, Cloned, read-out: Ki): ≥ 10 µM
Oc1ccc2c3c1O[C@H]1c4[nH]c5c(c4C[C@@]4(O)[C@@H](C2)N(CC2CC2)CC[C@]314)C[C@@]1(O)[C@H]2Cc3ccc(O)c4c3[C@@]1(CCN2CC1CC1)[C@H]5O4 [nor-BNI, Nor-binaltorphimine]	≥ 10 µM	1.46 µM	≥ 10 µM	not substrates	≥ 10 µM	≥ 10 µM	≥ 10 µM	≥ 10 µM	4.4 µM	≥ 10 µM	no convulsions or deaths	Ki (α2B; binding curve File S1, Alpha2B Receptor, [125I]Clonidine (0.12 nM), Alpha2 Binding Buffer): 1.46 µM; Ki (α2B; α2B, radioligand displacement (Table 1)): 1.5 µM; binding to glucocorticoid receptor NR3C1 [4]: No binding was detected; displacement of [3H]MK-801 from the phencyclidine (cation channel) site ([2]; at 10 µM): did not displace
